Results reported in ChEMBL document CHEMBL3879908, “Pyrrolidinone carboxamide derivatives” (2014).

Molecular target: T1, Chemerin-like receptor 1 (Homo sapiens, UniProt Q99788)
T1 sequence (Q99788 whole entry): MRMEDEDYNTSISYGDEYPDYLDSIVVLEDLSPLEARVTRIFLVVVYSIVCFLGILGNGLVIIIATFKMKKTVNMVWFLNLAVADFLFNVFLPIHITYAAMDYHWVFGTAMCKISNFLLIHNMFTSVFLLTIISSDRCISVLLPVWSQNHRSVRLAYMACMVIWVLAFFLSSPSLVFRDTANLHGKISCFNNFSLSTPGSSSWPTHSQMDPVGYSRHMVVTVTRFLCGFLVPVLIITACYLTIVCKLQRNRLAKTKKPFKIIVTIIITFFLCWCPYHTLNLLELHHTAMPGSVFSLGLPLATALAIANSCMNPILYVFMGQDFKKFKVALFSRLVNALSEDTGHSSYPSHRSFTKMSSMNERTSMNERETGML
Assay: Displacement of [125I]-chemerin from ChemR23 (unknown origin) transfected in mouse BaF3 cells after 3 hrs by scintillation counting method
Format: cell-based

SMILES | IC50 [nM]
Cc1cccc(C)c1N1CC(C(=O)Nc2cc(C(F)(F)F)cc(C(F)(F)F)c2)(C2=CCNCC2)CC1=O (configuration not stated) | 300 to 6000
CC[C@@]1(C(=O)Nc2cc(OC(C)C)cc(C(F)(F)F)c2)CN(c2c(C)cccc2C)C(=O)[C@H]1C | ≤ 30
Cc1cccc(C)c1N1CC(C(=O)Nc2cc(C(F)(F)F)cc(C(F)(F)F)c2)(C2=CCSCC2)CC1=O (configuration not stated) | ≤ 30
CC[C@@]1(C(=O)Nc2cc(N3CCCC3)cc(C(F)(F)F)c2)CN(c2c(C)cccc2C)C(=O)[C@H]1C | 30 to 300
CC[C@@]1(C(=O)Nc2cc(OC3CCC3)cc(C(F)(F)F)c2)CN(c2c(C)cccc2C)C(=O)[C@H]1C | ≤ 30
Cc1cccc(C)c1N1CC(C(=O)Nc2cc(C(F)(F)F)cc(C(F)(F)F)c2)(C2CCN(C)CC2)CC1=O (configuration not stated) | 300 to 6000
Cc1cccc(C)c1N1C[C@](C(=O)Nc2cc(C(F)(F)F)cc(C(F)(F)F)c2)(C2CCOCC2)[C@@H](C)C1=O | 30 to 300
Cc1ccccc1N1CC(C)(C(=O)Nc2cc(C(F)(F)F)cc(C(F)(F)F)c2)C(C)C1=O (configuration not stated) | ≤ 30
Cc1ccccc1N1CC(C(=O)Nc2cc(C(F)(F)F)cc(C(F)(F)F)c2)(C(C)C)CC1=O (configuration not stated) | ≤ 30
CC[C@@]1(C(=O)Nc2cc(OC)cc(C(F)(F)F)c2)CN(c2c(C)cccc2C)C(=O)[C@H]1C | 30 to 300
Cc1cccc(C)c1N1CC(C(=O)Nc2cc(Br)cc(C(F)(F)F)c2)(C(C)C)CC1=O (configuration not stated) | ≤ 30
CCOc1cc(NC(=O)[C@]2(CC)CN(c3c(C)cccc3C)C(=O)[C@H]2C)cc(C(F)(F)F)c1 | 30 to 300
CC(C)C1(C(=O)Nc2cc(C(F)(F)F)cc(C(F)(F)F)c2)CC(=O)N(c2ccccc2Cl)C1 (configuration not stated) | 30 to 300
Cc1cccc(C)c1N1CC(C(=O)Nc2cc(C(F)(F)F)cc(C(F)(F)F)c2)(C2CCSCC2)CC1=O (configuration not stated) | ≤ 30
Cc1cccc(C)c1N1CC(C(=O)Nc2cc(C(F)(F)F)cc(C(F)(F)F)c2)(C2CCN(C(=O)OC(C)(C)C)CC2)CC1=O (configuration not stated) | ≤ 30
CC[C@@]1(C(=O)Nc2cc(Cl)cc(C(F)(F)F)c2)CN(c2c(C)cccc2C)C(=O)[C@H]1C | ≤ 30
Cc1cccc(C)c1N1CC(C(=O)Nc2cc(C(F)(F)F)cc(C(F)(F)F)c2)(C2=CCS(=O)(=O)CC2)CC1=O (configuration not stated) | 30 to 300
Cc1cccc(C)c1N1CC(C(=O)Nc2cc(C(F)(F)F)cc(C(F)(F)F)c2)(C2=CCN(C)CC2)CC1=O (configuration not stated) | 30 to 300
CC[C@@]1(C(=O)Nc2cc(OC3CCCC3)cc(C(F)(F)F)c2)CN(c2c(C)cccc2C)C(=O)[C@H]1C | ≤ 30
CCCC[C@@]1(C(=O)Nc2cc(C(F)(F)F)cc(C(F)(F)F)c2)CN(c2c(C)cccc2C)C(=O)[C@H]1C | ≤ 30

SMILES | IC50 [nM]
C=CCC1C(=O)N(c2c(C)cccc2C)CC1(CC=C)C(=O)Nc1cc(C(F)(F)F)cc(C(F)(F)F)c1 (configuration not stated) | ≤ 30
Cc1ccccc1N1CC(C)(C(=O)Nc2cc(C(F)(F)F)cc(C(F)(F)F)c2)CC1=O (configuration not stated) | ≤ 30
Cc1cccc(C)c1N1CC(C(=O)Nc2cc(C(F)(F)F)cc(C(F)(F)F)c2)(C2CCCCC2)CC1=O (configuration not stated) | ≤ 30
CC[C@@]1(C(=O)Nc2cc(C3CC3)cc(C(F)(F)F)c2)CN(c2c(C)cccc2C)C(=O)[C@H]1C | ≤ 30
Cc1cccc(C)c1N1CC(C(=O)Nc2cc(C(F)(F)F)cc(C(F)(F)F)c2)(C2=CCOCC2)CC1=O (configuration not stated) | ≤ 30
Cc1cccc(C)c1N1CC(C(=O)Nc2cc(C(F)(F)F)cc(C(F)(F)F)c2)(C(C)N2CCCC2)CC1=O (configuration not stated) | 300 to 6000
Cc1cccc(C)c1N1C[C@@](CN2CCC(F)CC2)(C(=O)Nc2cc(C3CC3)cc(C(F)(F)F)c2)[C@H](C)C1=O | 30 to 300
Cc1cccc(C)c1N1C[C@](C(=O)Nc2cc(C(F)(F)F)cc(C(F)(F)F)c2)(C2CCOCC2)[C@H](C)C1=O | ≤ 30
Cc1cccc(C)c1N1CC(COCc2ccccc2)(C(=O)Nc2cc(C(F)(F)F)cc(C(F)(F)F)c2)CC1=O (configuration not stated) | ≤ 30
Cc1cc(C)n(C2(C(=O)Nc3cc(C(F)(F)F)cc(C(F)(F)F)c3)CC(=O)N(c3c(C)cccc3C)C2)n1 (configuration not stated) | ≤ 30
Cc1cccc(C)c1N1CC(C(=O)Nc2cc(C(F)(F)F)cc(C(F)(F)F)c2)(C2=CCN(C(=O)OC(C)(C)C)CC2)CC1=O (configuration not stated) | ≤ 30
Cc1cccc(C)c1N1C[C@@](CC(C)C)(C(=O)Nc2cc(C(F)(F)F)cc(C(F)(F)F)c2)[C@H](C)C1=O | ≤ 30
Cc1cccc(C)c1N1CC(CC2CCN(Cc3ccccc3)C2)(C(=O)Nc2cc(C(F)(F)F)cc(C(F)(F)F)c2)CC1=O (configuration not stated) | ≤ 30
CC[C@@]1(C(=O)Nc2cc(C#N)cc(C(F)(F)F)c2)CN(c2c(C)cccc2C)C(=O)[C@H]1C | ≤ 30
Cc1cccc(C)c1N1C[C@@](C(=O)Nc2cc(C(F)(F)F)cc(C(F)(F)F)c2)(C(C)C)[C@H](C)C1=O | ≤ 30
Cc1cccc(C)c1N1CC(C(=O)Nc2cc(C(F)(F)F)cc(C(F)(F)F)c2)(C2CCOCC2)CC1=O (configuration not stated) | ≤ 30
CCC1(C(=O)Nc2cccc(C(F)(F)F)c2)CC(=O)N(c2c(C)cccc2C)C1 (configuration not stated) | 300 to 6000
CC[C@@]1(C(=O)Nc2cc(C)cc(C(F)(F)F)c2)CN(c2c(C)cccc2C)C(=O)[C@H]1C | ≤ 30
Cc1cccc(C)c1N1C[C@](C(=O)Nc2cc(OC(C)C)cc(C(F)(F)F)c2)(C(C)C)CC1=O | ≤ 30
Cc1cccc(C)c1N1C[C@](C(=O)Nc2cc(C(F)(F)F)cc(C(F)(F)F)c2)(C(C)C)[C@H](C)C1=O | 30 to 300

The next lines start with the values.

IC50 [nM] | SMILES
≤ 30 | COCC1(C(=O)Nc2cc(C(F)(F)F)cc(C(F)(F)F)c2)CC(=O)N(c2c(C)cccc2C)C1 (configuration not stated)
≤ 30 | Cc1cccc(C)c1N1CC(C(=O)Nc2cc(C(F)(F)F)cc(C(F)(F)F)c2)(C2CCC2)CC1=O (configuration not stated)
≤ 30 | CCC1(C(=O)Nc2cc(C(F)(F)F)cc(C(F)(F)F)c2)CC(=O)N(c2c(C)cccc2C)C1 (configuration not stated)
30 to 300 | Cc1cccc(C)c1N1CC(CO)(C(=O)Nc2cc(C(F)(F)F)cc(C(F)(F)F)c2)CC1=O (configuration not stated)
≤ 30 | Cc1cccc(C)c1N1CC(C(=O)Nc2cc(C(F)(F)F)cc(C(F)(F)F)c2)(C(C)(C)O)CC1=O (configuration not stated)
30 to 300 | CC[C@@]1(C(=O)Nc2cc(C(F)(F)F)cc(C(F)(F)F)c2)CC(=O)N(c2c(C)cccc2C)C1
30 to 300 | CC[C@@]1(C(=O)Nc2cc(C(F)(F)F)cc(C(F)(F)F)c2)CN(c2c(C)cccc2C)C(=O)[C@H]1C
≤ 30 | CC[C@]1(C(=O)Nc2cc(C(F)(F)F)cc(C(F)(F)F)c2)CC(=O)N(c2c(C)cccc2C)C1
≤ 30 | CCC[C@@]1(C(=O)Nc2cc(C(F)(F)F)cc(C(F)(F)F)c2)CN(c2c(C)cccc2C)C(=O)[C@H]1C
30 to 300 | Cc1cccc(C)c1N1CC(C(=O)Nc2cc(C(F)(F)F)cc(C(F)(F)F)c2)(C(C)O)CC1=O (configuration not stated)
≤ 30 | Cc1cccc(C)c1N1C[C@@](C)(C(=O)Nc2cc(C(F)(F)F)cc(C(F)(F)F)c2)[C@H](C)C1=O
30 to 300 | Cc1cccc(C)c1N1C[C@](C)(C(=O)Nc2cc(C(F)(F)F)cc(C(F)(F)F)c2)[C@H](C)C1=O
≤ 30 | CCCCC1(C(=O)Nc2cc(C(F)(F)F)cc(C(F)(F)F)c2)CC(=O)N(c2c(C)cccc2C)C1 (configuration not stated)
300 to 6000 | CC[C@@H]1C(=O)N(c2c(C)cccc2C)C[C@]1(C)C(=O)Nc1cc(C(F)(F)F)cc(C(F)(F)F)c1
≤ 30 | CC[C@@]1(C(=O)Nc2cc(C(F)(F)F)cc(C(F)(F)F)c2)CN(c2c(C)cccc2C)C(=O)[C@H]1OC
≤ 30 | Cc1cccc(C)c1N1CC(C)(C(=O)Nc2cc(C(F)(F)F)cc(C(F)(F)F)c2)CC1=O (configuration not stated)
≤ 30 | CC[C@@H]1C(=O)N(c2c(C)cccc2C)C[C@@]1(C)C(=O)Nc1cc(C(F)(F)F)cc(C(F)(F)F)c1
≤ 30 | CCCC1(C(=O)Nc2cc(C(F)(F)F)cc(C(F)(F)F)c2)CC(=O)N(c2c(C)cccc2C)C1 (configuration not stated)
≤ 30 | Cc1cccc(C)c1N1CC(CCC(C)C)(C(=O)Nc2cc(C(F)(F)F)cc(C(F)(F)F)c2)CC1=O (configuration not stated)
≤ 30 | CC[C@@H]1C(=O)N(c2c(C)cccc2C)C[C@@]1(CC)C(=O)Nc1cc(C(F)(F)F)cc(C(F)(F)F)c1
30 to 300 | Cc1cccc(C)c1N1CC(CCCO)(C(=O)Nc2cc(C(F)(F)F)cc(C(F)(F)F)c2)CC1=O (configuration not stated)
≤ 30 | Cc1cccc(C)c1N1CC(CC(C)C)(C(=O)Nc2cc(C(F)(F)F)cc(C(F)(F)F)c2)CC1=O (configuration not stated)
30 to 300 | CC[C@]1(C(=O)Nc2cc(Cl)cc(C(F)(F)F)c2)CC(=O)N(c2c(C)cccc2C)C1
30 to 300 | Cc1cccc(C)c1N1CC(O)(C(=O)Nc2cc(C(F)(F)F)cc(C(F)(F)F)c2)CC1=O (configuration not stated)
≤ 30 | Cc1cccc(C)c1N1CC(C(=O)Nc2cc(C(F)(F)F)cc(C(F)(F)F)c2)(C2CCCC2)CC1=O (configuration not stated)
30 to 300 | CC[C@@]1(C(=O)Nc2cc(C(F)(F)F)cc(C(F)(F)F)c2)CN(c2c(C)cccc2C)C(=O)[C@@H]1C
30 to 300 | CCC(C)(C)C1(C(=O)Nc2cc(C(F)(F)F)cc(C(F)(F)F)c2)CC(=O)N(c2c(C)cccc2C)C1 (configuration not stated)
